In one assay the target is T1, TRPA1 channel (Rattus norvegicus, UniProt Q6RI86).
T1 construct: expressed in transfected cells
The assay is described as follows: Intracellular Ca2+ elevation in HEK-293 cells over-expressing rat TRPA1. It counts as cell-based. The method, then:
(§1) The applicants have conducted experiments using cannabinoid-containing plant extracts on rat recombinant TRPV1, TRPM8 channels and TRPA1 (also known as ANKTM1) channels, both were stably expressed in HEK293 cells. […] The TRPM8 channel is the receptor from menthol and icilin. The intracellular Ca^2+ concentration was determined before and after the addition of various concentrations of test compounds.
(§2) For the experiments with the TRPM8 channels menthol and icilin were used to activate the channels. For the experiments with the TRPV1 channels ionomycin was used to activate the channels. The cannabinoid-containing plant extracts were produced from cannabis plants using the subcritical CO2 extraction technique as described in the applicants granted United Kingdom patent GB2391865. The cannabinoids were then purified further using the method disclosed in the applicants granted United Kingdom patent GB2393721 to produce substantially pure cannabinoids. Un-purified plant extracts of THC and CBD were also tested in the experiments with the TRPA1 channels.
(§3) HEK293 (human embryonic kidney) cells were plated on 100 mm diameter Petri dishes and transfected at about 80% confluence with Lipofectamine 2000 (Invitrogen) using a plasmid containing the rat TRPA1, TRPV1 or TRPM8 cDNA, according to the manufacturer's protocol. A stably transfected clone was selected by Geneticin G-418 (Invitrogen) 600 μg/ml. Stable transfection was checked by quantitative real time-PCR (RT-PCR).
(§4) TRPA/TRPV1/TRPM8-HEK-293 cells were plated on 100 mm diameter Petri dishes and after 3 days loaded for 1 hour at room temperature with the cytoplasmic calcium indicator Fluo-4-AM (4 μM, Molecular Probes) dissolved in Tyrode' buffer (NaCl 145 mM; KCl 2.5 mM; CaCl2 1.5 mM; MgCl2 1.2 mM; D-Glucose 10 mM; HEPES 10 mM pH 7.4) containing Pluronic (0.02%, Molecular Probes). The cells were washed twice in Tyrode buffer, resuspended and transferred to the quartz cuvette of the spectrofluorimeter (Perkin-Elmer LS 50B) (λ excitation=488 nm; λ emission=516 nm). Intracellular Ca^2+ concentration was determined before and after the addition of various concentrations of test compounds. EC50 values were determined as the concentration of test substances required to produce half-maximal increases in intracellular Ca^2+ concentration. Curve fitting and parameter estimation was performed with Graph Pad Prism®. The same compounds were tested also on non-transfected HEK 293 cells.

The target in a further assay is T2, TRPV1 channel (Rattus norvegicus, UniProt O35433).
T2 construct: expressed in transfected cells
The assay is described as follows: Intracellular Ca2+ elevation in HEK-293 cells over-expressing rat TRPV1. It is filed as cell-based. As to conditions: for Emax: HEK293, read-out: Maximal response (% ionomycin). The method, then:
as §1, §2, §3, §4

The mark [1] stands for this setting: HEK293, TRPA1-HEK-293 cells, relative to mustard oil 100 μM, read-out: Maximal response (% of mustard oil 100 μM).
The mark [2] stands for this setting: TRPA1-HEK-293 cells, Fluo-4, read-out: -logEC50% (M) for the elevation of [Ca2+]i (converted).
Where [3] appears, read: TRPA1, summary of Table 1, read-out: EC50 values (range given).

The structures appear in SMILES notation. Read-outs that look alike come from different tables or passages of the source.

Experimental findings from patent US20100249223A1, “NEW USE FOR CANNABINOID-CONTAINING PLANT EXTRACTS” (priority 2007, published 2010) are described below.

T2 sequence (O35433 whole entry): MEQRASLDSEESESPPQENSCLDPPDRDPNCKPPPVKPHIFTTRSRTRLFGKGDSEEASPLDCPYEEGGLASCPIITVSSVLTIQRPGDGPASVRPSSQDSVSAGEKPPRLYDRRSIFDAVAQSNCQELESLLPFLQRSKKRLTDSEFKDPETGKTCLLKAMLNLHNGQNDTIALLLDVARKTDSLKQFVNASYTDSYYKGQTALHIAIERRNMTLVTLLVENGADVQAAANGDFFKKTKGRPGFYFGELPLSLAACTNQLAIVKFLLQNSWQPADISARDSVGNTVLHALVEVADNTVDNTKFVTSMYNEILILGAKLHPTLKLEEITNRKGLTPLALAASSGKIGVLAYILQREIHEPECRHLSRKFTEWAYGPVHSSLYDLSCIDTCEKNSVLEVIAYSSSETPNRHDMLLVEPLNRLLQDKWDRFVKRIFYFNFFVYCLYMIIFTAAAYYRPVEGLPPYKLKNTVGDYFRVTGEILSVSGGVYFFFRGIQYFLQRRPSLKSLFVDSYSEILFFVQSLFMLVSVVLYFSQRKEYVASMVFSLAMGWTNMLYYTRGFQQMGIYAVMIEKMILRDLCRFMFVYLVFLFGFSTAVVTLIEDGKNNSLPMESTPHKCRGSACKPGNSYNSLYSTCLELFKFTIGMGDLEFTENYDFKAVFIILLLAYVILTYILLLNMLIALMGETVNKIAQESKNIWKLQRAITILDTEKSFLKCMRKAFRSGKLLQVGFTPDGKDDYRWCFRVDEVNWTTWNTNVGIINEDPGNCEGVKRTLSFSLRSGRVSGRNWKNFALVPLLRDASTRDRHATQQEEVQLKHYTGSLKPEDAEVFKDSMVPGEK
T1 sequence (Q6RI86 whole entry): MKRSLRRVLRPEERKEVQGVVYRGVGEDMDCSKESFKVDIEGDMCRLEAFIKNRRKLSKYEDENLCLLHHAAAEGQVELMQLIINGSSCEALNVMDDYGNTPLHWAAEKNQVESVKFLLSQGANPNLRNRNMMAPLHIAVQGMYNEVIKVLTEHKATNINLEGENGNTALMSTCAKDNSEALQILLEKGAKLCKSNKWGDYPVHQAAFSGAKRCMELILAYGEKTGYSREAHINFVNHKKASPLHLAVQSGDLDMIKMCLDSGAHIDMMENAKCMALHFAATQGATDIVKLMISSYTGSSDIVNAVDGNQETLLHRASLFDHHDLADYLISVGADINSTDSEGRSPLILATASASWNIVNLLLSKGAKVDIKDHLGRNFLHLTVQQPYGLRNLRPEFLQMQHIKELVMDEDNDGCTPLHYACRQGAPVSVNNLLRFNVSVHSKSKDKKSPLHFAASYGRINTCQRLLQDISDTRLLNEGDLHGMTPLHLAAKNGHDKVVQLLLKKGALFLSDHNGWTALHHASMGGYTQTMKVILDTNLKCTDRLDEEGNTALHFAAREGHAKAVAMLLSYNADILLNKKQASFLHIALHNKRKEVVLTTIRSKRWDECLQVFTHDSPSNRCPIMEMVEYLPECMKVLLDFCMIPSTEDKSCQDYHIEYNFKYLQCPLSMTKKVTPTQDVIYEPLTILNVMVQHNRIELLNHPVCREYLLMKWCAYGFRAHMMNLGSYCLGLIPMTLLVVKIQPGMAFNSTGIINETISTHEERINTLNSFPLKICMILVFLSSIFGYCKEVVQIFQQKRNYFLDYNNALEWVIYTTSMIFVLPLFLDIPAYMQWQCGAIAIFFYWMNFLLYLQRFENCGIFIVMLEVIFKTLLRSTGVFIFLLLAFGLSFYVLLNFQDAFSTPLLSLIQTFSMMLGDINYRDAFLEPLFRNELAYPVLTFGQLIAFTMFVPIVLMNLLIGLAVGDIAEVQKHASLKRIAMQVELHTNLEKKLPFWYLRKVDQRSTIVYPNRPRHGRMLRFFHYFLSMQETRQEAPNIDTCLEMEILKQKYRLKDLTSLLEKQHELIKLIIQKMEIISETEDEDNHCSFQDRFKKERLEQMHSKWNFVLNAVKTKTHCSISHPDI

Regarding `C=C(C)[C@@H]1CCC(C)=C[C@H]1c1c(O)cc(CCCCC)cc1O` [CBD, cannabidiol], the Emax at TRPA1 channel (setting [1]) worked out at 86.9 ± 8%; at TRPV1 channel, 50 ± 1%. Besides, the results for the EC50 on TRPA1 channel (setting [2]), at TRPA1 channel (setting [3]) and at TRPV1 channel were 8.51e-08 M, 6e-08 to 1e-07 M and 700 nM, respectively.

Take `C=C(C)[C@@H]1CCC(C)=C[C@H]1c1c(O)cc(CCC)cc1O` [CBDV, cannabidivarin]: at TRPV1 channel, the EC50 amounted to 1400 nM and the Emax was 19.8 ± 1.9%.

For the compound `COc1cc(CNC(=O)CCCC/C=C/C(C)C)ccc1O` [Capsaicin, reference compound], on TRPV1 channel, the Emax came out at 68.6 ± 1.2%.

As for `CCCCCc1cc2c(c(O)c1C(=O)O)[C@@H]1C=C(C)CC[C@H]1C(C)(C)O2` [THCA, tetrahydrocannabinolic acid], the “Maximal response (% of mustard oil 100 μM)” value at TRPA1 channel (TRPA1-HEK-293 cells, relative to mustard oil 100 μM) is 70.1 ± 8%.

On to `C=C(C)[C@@H]1CCC(C)=C[C@H]1c1c(O)cc(CCCCC)c(C(=O)O)c1O` [CBDA, cannabidiolic acid], for which, at TRPA1 channel (setting [1]), the Emax amounted to 48.2 ± 6%. Further, the EC50 on TRPA1 channel (setting [2]) was 8.13e-07 M.

Take `O=CC=Cc1ccccc1` [Cinnamaldehyde, cinnamaldehyde, reference compound]: the Emax at TRPA1 channel (setting [1]) was 99.1 ± 9%. Further, on TRPA1 channel (setting [2]), the EC50 was 1.29e-05 M.

Regarding `CCCCCc1cc(O)c2c(c1)OC(C)(CCC=C(C)C)C=C2` (centres unmarked) [CBC, cannabichromene], the results for the Emax on TRPA1 channel (setting [1]) and on TRPV1 channel were 118 ± 10% and 9 ± 4.9%, respectively. Further, the EC50 on TRPA1 channel (setting [2]) was 3.31e-08 M; at TRPA1 channel (setting [3]), 6e-08 to 1e-07 M; on TRPV1 channel it was 24200 nM.

Consider `C=CCN=C=S` [Mustard oil (allyl isothiocyanate), allyl isothiocyanate, reference compound], for which, at TRPA1 channel (setting [1]), the Emax at 100 µM stood at 100 ± 11%.

For `CCCCCc1cc(O)c(C/C=C(\C)CCC=C(C)C)c(O)c1` [CBG, cannabigerol], at TRPV1 channel, the EC50 is 1000 nM and the Emax worked out at 54.4 ± 5.4%.

Take `CCCCCc1cc(O)c2c(c1)OC(C)(C)[C@@H]1CCC(C)=C[C@@H]21` [THC, tetrahydrocannabinol]: the Emax at TRPA1 channel (setting [1]) was found to be 117 ± 12%. Besides, the EC50 at TRPA1 channel (setting [2]) is 1.86e-07 M.
